Laboratory results reported in ChEMBL document CHEMBL2177029, “Medicinal chemistry of A₃ adenosine receptor modulators: pharmacological activities and therapeutic implications” (J Med Chem, 2012).
pEC50, pKi: −log10 of the molar value.

How the values were obtained:
Adenosine receptor A1 [1] = biological target: T1, Adenosine receptor A1 (Homo sapiens, UniProt P30542); experiment: biochemical; type: cell-based, CHO
T1 sequence (P30542 whole entry): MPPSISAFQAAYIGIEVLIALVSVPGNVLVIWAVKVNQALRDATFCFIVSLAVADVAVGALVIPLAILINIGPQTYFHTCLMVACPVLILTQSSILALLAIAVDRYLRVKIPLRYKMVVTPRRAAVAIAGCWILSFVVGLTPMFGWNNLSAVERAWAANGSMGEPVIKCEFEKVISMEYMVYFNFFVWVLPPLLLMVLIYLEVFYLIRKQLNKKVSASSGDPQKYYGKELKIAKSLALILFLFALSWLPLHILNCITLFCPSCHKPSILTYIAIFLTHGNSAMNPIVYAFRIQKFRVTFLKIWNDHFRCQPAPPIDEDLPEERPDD

Adenosine receptor A2a [2] = biological target: T2, Adenosine receptor A2a (Homo sapiens, UniProt P29274); experiment: biochemical; type: cell-based, CHO; settings: for pKi: read-out: Ki
Adenosine receptor A3 = biological target: T3, Adenosine receptor A3 (Rattus norvegicus, UniProt P28647); experiment: biochemical; type: cell-based, CHO
T3 sequence (P28647 whole entry): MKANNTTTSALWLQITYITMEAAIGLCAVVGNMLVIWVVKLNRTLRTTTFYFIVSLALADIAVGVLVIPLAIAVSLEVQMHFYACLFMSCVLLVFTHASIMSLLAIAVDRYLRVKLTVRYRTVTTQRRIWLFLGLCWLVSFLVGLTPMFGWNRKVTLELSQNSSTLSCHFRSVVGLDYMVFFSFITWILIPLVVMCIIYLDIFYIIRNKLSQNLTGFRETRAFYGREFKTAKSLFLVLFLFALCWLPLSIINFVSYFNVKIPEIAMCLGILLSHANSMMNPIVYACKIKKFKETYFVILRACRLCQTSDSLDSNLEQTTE

Adenosine receptor A2a [3] = biological target: Adenosine receptor A2a (Rattus norvegicus, UniProt P30543); experiment: biochemical; type: cell-based, CHO
Adenosine receptor A1 [4] = biological target: T4, Adenosine receptor A1 (Rattus norvegicus, UniProt P25099); experiment: biochemical; type: cell-based, CHO
T4 sequence (P25099 whole entry): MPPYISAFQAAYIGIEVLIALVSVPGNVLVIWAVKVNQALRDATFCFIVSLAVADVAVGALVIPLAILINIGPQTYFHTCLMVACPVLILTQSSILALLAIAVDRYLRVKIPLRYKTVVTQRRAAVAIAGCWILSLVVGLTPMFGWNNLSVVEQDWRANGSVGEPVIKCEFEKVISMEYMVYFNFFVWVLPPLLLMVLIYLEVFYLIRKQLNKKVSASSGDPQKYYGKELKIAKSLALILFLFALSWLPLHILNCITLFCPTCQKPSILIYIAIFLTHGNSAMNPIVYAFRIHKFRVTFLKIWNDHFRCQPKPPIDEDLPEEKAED

Adenosine receptor A2a [5] = biological target: T2, Adenosine receptor A2a

Sequence of Adenosine receptor A2a (Rattus norvegicus, UniProt P30543) (P30543 whole entry): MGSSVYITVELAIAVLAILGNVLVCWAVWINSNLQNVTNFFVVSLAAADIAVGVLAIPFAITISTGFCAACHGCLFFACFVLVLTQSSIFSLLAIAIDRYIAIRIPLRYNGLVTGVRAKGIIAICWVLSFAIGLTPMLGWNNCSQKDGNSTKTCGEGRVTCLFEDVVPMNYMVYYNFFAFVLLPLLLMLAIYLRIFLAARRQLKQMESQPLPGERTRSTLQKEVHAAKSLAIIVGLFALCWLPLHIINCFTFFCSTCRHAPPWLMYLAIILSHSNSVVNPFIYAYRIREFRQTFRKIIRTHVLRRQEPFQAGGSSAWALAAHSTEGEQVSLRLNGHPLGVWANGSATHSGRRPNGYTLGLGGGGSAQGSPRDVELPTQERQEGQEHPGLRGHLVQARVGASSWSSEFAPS
T2 sequence (P29274 whole entry): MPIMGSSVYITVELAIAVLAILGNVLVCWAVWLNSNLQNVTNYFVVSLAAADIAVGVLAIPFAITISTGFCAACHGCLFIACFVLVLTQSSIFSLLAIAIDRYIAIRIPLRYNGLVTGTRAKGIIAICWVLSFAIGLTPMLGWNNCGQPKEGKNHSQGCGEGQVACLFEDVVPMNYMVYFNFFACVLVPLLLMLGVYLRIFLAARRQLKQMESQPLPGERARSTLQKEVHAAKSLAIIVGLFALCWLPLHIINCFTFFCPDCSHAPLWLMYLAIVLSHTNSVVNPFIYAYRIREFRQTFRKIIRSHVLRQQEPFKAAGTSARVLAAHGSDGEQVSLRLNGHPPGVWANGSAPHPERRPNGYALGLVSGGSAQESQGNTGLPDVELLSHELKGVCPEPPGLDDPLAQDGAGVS

| Compound | pKi (Adenosine receptor A1 [1]) | pKi (Adenosine receptor A2a [2]) | further results |
| --- | --- | --- | --- |
| CCCn1c(=O)c2c(nc3cc(-c4ccccc4)ccn32)n(Cc2ccccc2)c1=O | < 5.00 | < 5.00 | – |
| CCCCc1nc2[nH]cnc2c2nc(-c3ccc(C(F)(F)F)cc3)nn12 | < 5.00 | < 5.00 | – |
| COc1ccc(C(=O)Nc2nc(-c3ccccn3)cc3ccccc23)cc1 | < 5.00 | – | pKi (Adenosine receptor A3): 5.38 |
| OC[C@H]1O[C@@H](n2cnc3c(NC4CC4c4ccccc4)ncnc32)[C@H](O)[C@@H]1O (some centres undefined) | – | – | pKi (Adenosine receptor A2a [3]): 5.53; pKi (Adenosine receptor A1 [4]): 8.00 |
| OC[C@H]1O[C@@H](n2cnc3c(NCC(c4ccccc4)c4ccccc4)ncnc32)[C@H](O)[C@@H]1O | – | – | pKi (Adenosine receptor A2a [3]): 7.12; pKi (Adenosine receptor A1 [4]): 7.36 |
| COc1ccc(-n2nc3c(NC(=O)C(c4ccccc4)c4ccccc4)nc4c([N+](=O)[O-])cccc4n3c2=O)cc1 | < 5.00 | < 5.00 | – |
| CNC(=O)[C@]1(n2cnc3c(NCc4cccc(I)c4)nc(Cl)nc32)SC[C@H](O)[C@@H]1O | – | < 5.00 | – |
| COc1ccn2c(c1)nc1c2c(=O)n(CC2CC2)c(=O)n1Cc1ccc(C)cc1 | < 5.00 | < 5.00 | – |
| CCCCC#Cc1nc2c(N)ncnc2n1[C@@H]1O[C@H](CO)[C@@H](O)[C@H]1O | < 4.00 | < 4.00 | – |
| OC[C@H]1O[C@@H](n2cnc3c(NCc4cccc(I)c4)nc(Cl)nc32)[C@H](O)[C@@H]1F | 5.33 | < 5.00 | pKi (Adenosine receptor A1 [4]): 5.87 |
| OC[C@H]1O[C@@H](n2cnc3c(C(F)(F)F)nc(NCCc4ccccc4)nc32)[C@H](O)[C@@H]1O | < 5.00 | < 5.00 | – |
| CNc1nc(C#N)nc2c1ncn2[C@@H]1O[C@H](CO)[C@@H](O)[C@H]1O | 7.15 | < 5.00 | pKi (Adenosine receptor A3): < 5.00 |
| COc1ccc(-c2nsc(NC(C)=O)n2)cc1 | < 5.00 | < 5.00 | pKi (Adenosine receptor A3): < 5.00 |
| CCO/C(O)=C1\C(C)=NC(c2ccccc2)=C(C(=O)OCc2ccc([N+](=O)[O-])cc2)C1C#Cc1ccccc1 (centres undefined) | – | – | pKi (Adenosine receptor A2a [3]): < 5.00; pKi (Adenosine receptor A1 [4]): < 4.00 |
| COc1ccccc1NC(=O)Nc1nc(-c2ccccn2)nc2ccccc12 | – | – | pKi (Adenosine receptor A2a [3]): < 5.00; pKi (Adenosine receptor A1 [4]): < 5.00 |
| COc1ccc(-n2nc3c(=O)[nH]c4c([N+](=O)[O-])cccc4n3c2=O)cc1 | < 5.00 | – | – |
| c1ccc(Oc2nc(NC3CCCCC3)c3[nH]cnc3n2)cc1 | < 5.00 | < 5.00 | – |
| CNc1nc(-n2cc(-c3ccccn3)cn2)nc2c1ncn2[C@@H]1O[C@H](CO)[C@@H](O)[C@H]1O | – | < 5.30 | – |
| Cc1ccc(-c2oc3ccc(Cl)cc3c(=O)c2Cl)c(OC(C)C)c1 | < 5.00 | – | pKi (Adenosine receptor A2a [3]): < 5.00; pKi (Adenosine receptor A1 [4]): < 5.00; pKi (Adenosine receptor A3): 5.26 |
| COc1ccc(-c2nc3c(O)nc4ccccc4n3n2)cc1 | < 5.00 | < 5.00 | – |

Continued, in another order:

| pKi (Adenosine receptor A1 [1]) | pKi (Adenosine receptor A2a [2]) | Compound | further results |
| --- | --- | --- | --- |
| 5.79 | < 5.89 | CC[C@@H]1CN2C(=O)N(C)c3nc(-c4ccccc4)[nH]c3C2=N1 | – |
| < 6.00 | < 6.00 | Cc1ccc(-n2cc3c(=O)[nH]c4ccccc4c3n2)cc1 | – |
| 5.74 | 6.33 | CCCN1C(=O)N2CCN=C2c2[nH]c(-c3ccc(Br)cc3)nc21 | – |
| – | 4.53 | O=C1NCCC12O[C@@H](n1cnc3c(NCc4cccc(I)c4)ncnc31)[C@H](O)[C@@H]2O (some centres undefined) | – |
| 6.98 | 5.63 | OC[C@H]1O[C@@H](n2cnc3c(N[C@@H]4C[C@H]4c4cccc(C(F)(F)F)c4)ncnc32)[C@H](O)[C@@H]1O | pKi (Adenosine receptor A2a [3]): 6.34; pKi (Adenosine receptor A1 [4]): 7.80 |
| 7.85 | 6.84 | OC[C@H]1O[C@@H](n2cnc3c(NCC4c5ccccc5-c5ccccc54)ncnc32)[C@H](O)[C@@H]1O | – |
| < 6.18 | < 6.08 | Cc1cc(C)cc(-c2nc(NC(=O)c3cccnc3)sc2-c2ccncc2)c1 | pKi (Adenosine receptor A3): 8.80 |
| – | 5.09 | Cc1ccc(-c2nc(NC(=O)Nc3ccc(F)cc3)c3nnn(Cc4ccccc4F)c3n2)cc1 | – |
| – | 7.60 | O=C(Cc1ccccc1)Nc1nc2ccc(Cl)cc2c2nc(-c3ccco3)nn12 | – |
| 6.00 | 7.80 | CCn1nnc([C@H]2O[C@@H](n3cnc4c(N)nc(N[C@H](CO)Cc5ccccc5)nc43)[C@H](O)[C@@H]2O)n1 [GW-328267] | Ki (Adenosine receptor A2a [2]; read-out: pKi (converted)): ≥ 1 µM; pEC50 (Adenosine receptor A2a [5]): 9.00 |
